Test system: Ucp1
Assay: UCP1 luciferase assay (Ucp1 up-regulation in differentiated inguinal adipocytes of Ucp1-luciferase knock-in mice)
Format: cell-based
Details: Mus musculus, Adipocyte, 48 h, 2 days treatment, luciferase activity, read-out: Ucp1 activation fold/corresponding concentration
Experimental: TEST EXAMPLE 1 UCP1 Luciferase Assay
Evaluating Compounds that Induce Ucp1 Up-Regulation
Ucp1-luciferase knock-in mice will be housed in cages and fed on standard chow diets (the detailed procedures please see reference 14). The 8-week-old mice will be killed by the cervical dislocation and put into 75% alcohol for 5 minutes. The inguinal adipose tissue will be dissected out and transferred to the three 10-cm petri dishes and washed with PBS for three times. The adipose tissue will be dissected and minced on a 10-cm petri dish for several minutes and then pipetted into 20 ml 0.1% collagenase solution in 50 ml conical tubes and digested at 37° C. for 1 hour. Next, 20 ml culture medium will be added to terminate the digestion and centrifuged for 10 minutes at 1000 rpm respectively. The supernatants will be removed and the pellets re-suspended in 10 mL culture medium and plated into 10-cm plates. The cells will be left to adhere to the plates overnight and the culture medium will be changed every other day. The confluent cells will be trypsinized, counted and plated to 24-well plate (5×10^4 cells/well). The cells will be washed and re-fed the next day (as day −2). Two days later (day 0), the cells will usually become confluent and be induced to differentiate with MDIR medium. On day 2, the medium will be changed to IR medium and re-fed every 2 days. Complete differentiation is usually achieved by day 10. On day 10, the medium will be changed to the culture medium of 10% FBS/DMEM with indicated drugs along with the positive and negative controls for 2 days. The media will be removed and the cells washed with 1 ml PBS per well three times. Then 100 μl lysis buffer will be used to lyse the cells at 4° C. for 1 hour. 30 μl culture medium, 30 μl cell lysates and 60 μl Steady-Glo® Reagent were added to a well of 96-well-plate and the luminescence will be measured using a luminometer. The protein concentration will be determined using 20 μl cell lysates and specific activity of luciferase will be tabulated and data analyzed.

SMILES	fold induction at 1 µM	fold induction at 3 µM	other results
COc1ccc(-c2csc(Nc3cc(C)ccn3)n2)cc1OC [Compound 2, 4-(3,4-dimethoxyphenyl)-N-(4-methylpyridin-2-yl)thiazol-2-amine]	1.1	–	–
COc1cccc(-c2csc(Nc3ccccn3)n2)c1 [Compound 3, 4-(3-methoxyphenyl)-N-(pyridin-2-yl)thiazol-2-amine]	2.8	–	–
c1ccc(-c2csc(Nc3ccccn3)n2)cc1 [Compound 4, 4-phenyl-N-(pyridin-2-yl)thiazol-2-amine]	–	4.1	–
N#Cc1cccc(-c2csc(Nc3ccccn3)n2)c1 [Compound 5, 3-(2-(pyridin-2-ylamino)thiazol-4-yl)benzonitrile]	–	5.4	–
COc1ccc(-c2csc(Nc3cc4ccccc4cn3)n2)cc1OC [Compound 6, 4-(3,4-dimethoxyphenyl)-N-(isoquinolin-3-yl)thiazol-2-amine]	1.2	–	–
c1ccc(Nc2nc(-c3c[nH]c4ccccc34)cs2)nc1 [Compound 7, 4-(1H-indol-3-yl)-N-(pyridin-2-yl)thiazol-2-amine]	–	–	fold induction at 0.3 µM: 1.2
c1ccc(Nc2nc(-c3cccnc3)cs2)nc1 [Compound 9, N-(pyridin-2-yl)-4-(pyridin-3-yl)thiazol-2-amine]	3.6	–	–
COc1ccc(-c2csc(Nc3cccc(C)n3)n2)cc1OC [Compound 10, 4-(3,4-dimethoxyphenyl)-N-(6-methylpyridin-2-yl)thiazol-2-amine]	–	3.8	–
COc1ccc(-c2csc(Nc3ccc(C)cn3)n2)cc1OC [Compound 11, 4-(3,4-dimethoxyphenyl)-N-(5-methylpyridin-2-yl)thiazol-2-amine]	2	–	–
COc1ccc(-c2csc(Nc3ncccc3C)n2)cc1OC [Compound 12, 4-(3,4-dimethoxyphenyl)-N-(3-methylpyridin-2-yl)thiazol-2-amine]	1.2	–	–
COc1ccc(-c2csc(Nc3cc(Cl)ccn3)n2)cc1OC [Compound 13, N-(4-chloropyridin-2-yl)-4-(3,4-dimethoxyphenyl)thiazol-2-amine]	–	1.6	–
COc1ccc(-c2csc(Nc3nc4ccc(C)cc4s3)n2)cc1OC [Compound 14, N-(4-(3,4-dimethoxyphenyl)thiazol-2-yl)-6-methylbenzo[d]thiazol-2-amine]	–	2.4	–
COc1ccc(-c2csc(Nc3ccccn3)n2)c(OC)c1 [Compound 15, 4-(2,4-dimethoxyphenyl)-N-(pyridin-2-yl)thiazol-2-amine]	–	–	fold induction at 0.3 µM: 1.4
CN(C)c1ccc(-c2csc(Nc3ccccn3)n2)cc1 [Compound 16, 4-(4-(dimethylamino)phenyl)-N-(pyridin-2-yl)thiazol-2-amine]	–	5.1	–
COc1cc(-c2csc(Nc3ccccn3)n2)cc(OC)c1OC [Compound 17, N-(pyridin-2-yl)-4-(3,4,5-trimethoxyphenyl)thiazol-2-amine]	1.9	–	–
COc1cc(OC)cc(-c2csc(Nc3ccccn3)n2)c1 [Compound 18, 4-(3,5-dimethoxyphenyl)-N-(pyridin-2-yl)thiazol-2-amine]	–	5.3	–
COc1ccc(-c2nc(Nc3ccccn3)sc2C)cc1OC [Compound 19, 4-(3,4-dimethoxyphenyl)-5-methyl-N-(pyridin-2-yl)thiazol-2-amine]	1.6	–	–
COc1ccc(-c2csc(Nc3ccccc3)n2)cc1OC [Compound 20, 4-(3,4-dimethoxyphenyl)-N-phenylthiazol-2-amine]	–	3	–
Cc1ccc(-c2csc(Nc3ccccn3)n2)cc1 [Compound 21, N-(pyridin-2-yl)-4-p-tolylthiazol-2-amine]	–	2.9	–
Fc1ccc(-c2csc(Nc3ccccn3)n2)cc1 [Compound 22, 4-(4-fluorophenyl)-N-(pyridin-2-yl)thiazol-2-amine]	3.9	–	–

SMILES	fold induction at 1 µM	fold induction at 3 µM	other results
FC(F)(F)Oc1ccc(-c2csc(Nc3ccccn3)n2)cc1 [Compound 23, N-(pyridin-2-yl)-4-(4-(trifluoromethoxy)phenyl)thiazol-2-amine]	–	4	–
COc1ccccc1-c1csc(Nc2ccccn2)n1 [Compound 24, 4-(2-methoxyphenyl)-N-(pyridin-2-yl)thiazol-2-amine]	–	2.7	–
COc1cc(Br)ccc1-c1csc(Nc2ccccn2)n1 [Compound 25, 4-(4-bromo-2-methoxyphenyl)-N-(pyridin-2-yl)thiazol-2-amine]	–	1.3	–
c1ccc(Nc2nc(-c3ccncc3)cs2)nc1 [Compound 26, N-(pyridin-2-yl)-4-(pyridin-4-yl)thiazol-2-amine]	–	3.5	–
c1ccc(Nc2nc(-c3ccccn3)cs2)nc1 [Compound 27, N,4-di(pyridin-2-yl)thiazol-2-amine]	3.3	–	–
Brc1cc(N2CCOCC2)ccc1-c1csc(Nc2ccccn2)n1 [Compound 28, 4-(2-bromo-4-morpholinophenyl)-N-(pyridin-2-yl)thiazol-2-amine]	–	3.2	–
COc1ccc(-c2csc(NC(C)=O)n2)cc1OC [Compound 29, N-(4-(3,4-dimethoxyphenyl)thiazol-2-yl)acetamide]	–	–	fold induction at 0.3 µM: 1.2
COc1ccc(-c2csc(NC(=O)c3ccccc3)n2)cc1OC [Compound 30, N-(4-(3,4-dimethoxyphenyl)thiazol-2-yl)benzamide]	1.1	–	–
CNc1nc(-c2ccc(OC)c(OC)c2)cs1 [Compound 31, 4-(3,4-dimethoxyphenyl)-N-methylthiazol-2-amine]	1.1	–	–
COc1ccc(-c2csc(NC(=O)c3ccccn3)n2)cc1OC [Compound 32, N-(4-(3,4-dimethoxyphenyl)thiazol-2-yl)picolinamide]	–	2.6	–
COc1ccc(-c2csc(Nc3cccnc3)n2)cc1OC [Compound 33, 4-(3,4-dimethoxyphenyl)-N-(pyridin-3-yl)thiazol-2-amine]	–	2	–
O=[N+]([O-])c1ccc(-c2csc(Nc3ccccn3)n2)cc1 [Compound 34, 4-(4-nitrophenyl)-N-(pyridin-2-yl)thiazol-2-amine]	3.8	–	–
Nc1ccc(-c2csc(Nc3ccccn3)n2)cc1 [Compound 35, 4-(4-aminophenyl)-N-(pyridin-2-yl)thiazol-2-amine]	3.7	–	–
CC(=O)Nc1ccc(-c2csc(Nc3ccccn3)n2)cc1 [Compound 36, N-(4-(2-(pyridin-2-ylamino)thiazol-4-yl)phenyl)acetamide]	3.8	–	–
CC(C)NC(=O)Nc1ccc(-c2csc(Nc3ccccn3)n2)cc1 [Compound 37, 1-isopropyl-3-(4-(2-(pyridin-2-ylamino)thiazol-4-yl)phenyl)urea]	–	2	–
CCC(=O)Nc1ccc(-c2csc(Nc3ccccn3)n2)cc1 [Compound 38, N-(4-(2-(pyridin-2-ylamino)thiazol-4-yl)phenyl)propionamide]	–	5	–
CCCC(=O)Nc1ccc(-c2csc(Nc3ccccn3)n2)cc1 [Compound 39, N-(4-(2-(pyridin-2-ylamino)thiazol-4-yl)phenyl)butyramide]	3.4	–	–
Brc1ccc(-c2csc(Nc3ccccn3)n2)cc1 [Compound 40, 4-(4-bromophenyl)-N-(pyridin-2-yl)thiazol-2-amine]	–	3	–
Oc1ccc(-c2csc(Nc3ccccn3)n2)cc1 [Compound 41, 4-(2-(pyridin-2-ylamino)thiazol-4-yl)phenol]	3.3	–	–
